Laboratory results from PubChem BioAssay (NCI).
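96-well plates; 48 h exposure; 5 concentrations. Endpoints by linear interpolation between flanking doses. Not reached: highest tested concentration assigned. TGI: concentration producing complete growth inhibition.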

Experiments:
Experiment in all cases: inhibition of tumour cell growth, NCI panel, 48 h
[1] = test system: 786-0 renal
[2] = test system: A498 renal
[3] = test system: A549 NSCLC
[4] = test system: ACHN renal
[5] = test system: BT-549 breast
[6] = test system: CAKI-1 renal
[7] = test system: CCRF-CEM leukemia
[8] = test system: COLO 205 colon
[9] = test system: DU-145 prostate
[10] = test system: EKVX NSCLC
[11] = test system: HCC-2998 colon
[12] = test system: HCT-116 colon
[13] = test system: HCT-15 colon
[14] = test system: HL-60(TB) leukemia
[15] = test system: HOP-62 NSCLC
[16] = test system: HOP-92 NSCLC
[17] = test system: HS 578T breast
[18] = test system: HT29 colon
[19] = test system: IGROV1 ovarian
[20] = test system: K-562 leukemia
[21] = test system: KM12 colon
[22] = test system: LOX IMVI melanoma
[23] = test system: M14 melanoma
[24] = test system: MALME-3M melanoma
[25] = test system: MCF7 breast
[26] = test system: MDA-MB-231 breast
[27] = test system: MDA-MB-435
[28] = test system: MDA-N
[29] = test system: MOLT-4 leukemia
[30] = test system: NCI-H226 lung
[31] = test system: NCI-H23 lung
[32] = test system: NCI-H460 lung
[33] = test system: NCI-H522 lung
[34] = test system: NCI/ADR-RES ovarian
[35] = test system: OVCAR-3 ovarian
[36] = test system: OVCAR-5 ovarian
[37] = test system: OVCAR-8 ovarian
[38] = test system: PC-3 prostate
[39] = test system: RPMI-8226 leukemia
[40] = test system: RXF 393 renal
[41] = test system: SF-268 CNS
[42] = test system: SF-295 CNS
[43] = test system: SF-539 CNS
[44] = test system: SK-MEL-2 melanoma
[45] = test system: SK-MEL-28 melanoma
[46] = test system: SK-MEL-5 melanoma
[47] = test system: SK-OV-3 ovarian
[48] = test system: SN12C renal
[49] = test system: SNB-19 CNS
[50] = test system: SNB-75 CNS
[51] = test system: SR leukemia
[52] = test system: SW-620 colon
[53] = test system: T-47D breast
[54] = test system: U251 CNS
[55] = test system: UACC-257 melanoma
[56] = test system: UACC-62 melanoma
[57] = test system: UO-31 renal
[58] = test system: DMS 273 small cell lung
[59] = test system: HOP-18 NSCLC
[60] = test system: TK-10 renal

For `CCC1OC(=O)CC(O)C(C)C(OC2OC(C)CC(N(C)C)C2O)C(CC=O)CC(C)C(=O)/C=C/C2(C)OC2C1C` (centres undefined), the TGI [1] was 40.9 µM, the TGI [2] was 71.8 µM and the TGI [3] was greater than 100 µM. It also gave a TGI [4] of 56.1 µM, a TGI [5] of 31.8 µM and a TGI [6] of 74.1 µM. For the same molecule, the TGI [7] was 26.2 µM, the TGI [8] was 32.2 µM and the TGI [9] was 61.2 µM. The TGI [10] was 44.8 µM, the TGI [11] was greater than 100 µM and the TGI [12] was 31.6 µM. It also gave a TGI [13] of 39.1 µM, a TGI [14] of 32.4 µM and a TGI [15] of 71.7 µM. The TGI [16] was 64.6 µM, the TGI [17] was greater than 100 µM and the TGI [18] was 38.3 µM. For the same molecule, the TGI [19] was 25.4 µM, the TGI [20] was 24.3 µM and the TGI [21] was 28.6 µM. It also gave a TGI [22] of 48 µM, a TGI [23] greater than 100 µM and a TGI [24] of 64.9 µM. It also gave a TGI [25] of 25 µM, a TGI [26] of 53.8 µM and a TGI [27] of 40.3 µM. The TGI [28] was greater than 100 µM, the TGI [29] was 43.4 µM and the TGI [30] was 49.6 µM. The TGI [31] was 52.3 µM, the TGI [32] was greater than 100 µM and the TGI [33] was 54.9 µM. For the same molecule, the TGI [34] was 86.7 µM, the TGI [35] was 59.1 µM and the TGI [36] was greater than 100 µM. For the same molecule, the TGI [37] was 68.5 µM, the TGI [38] was greater than 100 µM and the TGI [39] was greater than 100 µM. For the same molecule, the TGI [40] was 56.1 µM, the TGI [41] was 76.3 µM and the TGI [42] was 77.1 µM. It also gave a TGI [43] of 29.6 µM, a TGI [44] greater than 100 µM and a TGI [45] of 42.3 µM. The TGI [46] was 29.3 µM, the TGI [47] was 78.9 µM and the TGI [48] was 39.1 µM. The TGI [49] was 30.6 µM, the TGI [50] was 40.8 µM and the TGI [51] was 36.6 µM. It also gave a TGI [52] of 34.8 µM, a TGI [53] of 48.6 µM and a TGI [54] of 30.8 µM. It also gave a TGI [55] greater than 100 µM, a TGI [56] of 28.9 µM and a TGI [57] of 80.4 µM.

With `CC(=O)Oc1cc(OC(C)=O)c2c(c1)OC(c1ccc(OC(C)=O)c(OC(C)=O)c1)CC2=O` (centres undefined) the TGI [3] was greater than 100 µM, the TGI [7] was greater than 100 µM and the TGI [8] was greater than 100 µM. It also gave a TGI [58] greater than 100 µM, a TGI [11] greater than 100 µM and a TGI [12] greater than 100 µM. For the same molecule, the TGI [14] was 29.7 µM, the TGI [59] was 95.8 µM and the TGI [16] was 69.4 µM. It also gave a TGI [42] greater than 100 µM, a TGI [46] greater than 100 µM and a TGI [47] greater than 100 µM. The TGI [48] was greater than 100 µM, the TGI [51] was 49 µM and the TGI [52] was greater than 100 µM. It also gave a TGI [60] greater than 100 µM and a TGI [57] greater than 100 µM.
